From patent US6204266A, “Pharmaceutical, cosmetic and/or food composition having anti-oxidant properties” (Universite Catholique De Louvain Halles Universitaires, priority 1995, dated 2001)

What was measured:
[1] = system: Cu-Zn superoxide dismutase; test: Competition of imidazolopyrazine and superoxide dismutase for superoxide anion (xanthine oxidase/hypoxanthine), luminescence; assay type: biochemical; details: for change of slope of the relationship linking IO/I to the superoxide dismutase concentration: when the concentration of the luminescent compound is increased
From the text: This method is based on the capacity of imidazolopyrazines to react with the superoxide anion, emitting light.
In these experiments, a constant level of superoxide anion is generated by an enzymatic method, by reacting xanthine oxidase with hypoxanthine in the presence of oxygen.
The maximum light intensity, measured by a luminometer during the competition reaction, is linked to the ratio in [sic] imidazolopyrazine and superoxide dismutase concentrations, as well as to that of the respective rate constants.
Consequently, knowing the rate constant of the reaction of the competing antioxidant with the superoxide anion (K3), the rate constant of the reaction of the imidazolopyrazine with the superoxide anion (K2) may be calculated:
By carrying out this experiment at two imidazolopyrazine concentrations, it is possible to eliminate K1 [O2^2- ] corresponding to the spontaneous disproportionation reaction of O2^2-. The slopes A and B of the straight lines linking IO /I [sic] to the superoxide dismutase concentration are: [formula]
K2 =K3 /([IMPZ]1 -[IMPZ]2)/(1/A)-1/B)
When the imidazolopyrazine concentration is increased, the slope of the relationship linking IO /I [sic] to the superoxide dismutase concentration should decrease.

[2] = Stability in aqueous medium (buffers pH 4, 7, 10; assayed by luminescence in DMSO); assay type: physicochemical; details: irrespective of the pH
Procedure: FIG. 7 depicts the stability of the derivative 10 in an aqueous medium. Three 10^-5 M solutions of CLZN-10 were prepared in citrate (pH 4), phosphate (pH 7) and glycine (pH 10) buffers. Aliquots of these solutions were sampled regularly and the CLZN-10 assayed by luminescence in DMSO.
In comparison with coelenterazine, derivatives comprising additional phenyl groups display better stability.

Human fibroblasts = test: Protection of human fibroblasts against oxidative stress inducer tert-butyl hydroperoxide (t-BHP); assay type: cell-based
Procedure: Human fibroblasts were subjected to an oxidative stress inducer (tert-butyl hydroperoxide (t-BHP)) for 6 to 12 hours in the absence and in the presence of increasing doses of coelenterazine and its derivatives.
In the same experimental series, the efficacy of vitamin E (α-tocopherol) (Troxol®), a major antioxidant of animal cells, was compared.

mice [3] = details: mouse, in vivo
In vivo toxicity in mice = details: mouse, in vivo, ip, 0.02 mg/kg
mice [4] = test: In vivo toxicity in mice; details: 20 μg/kg, 5 intraperitoneal injections
[5] = In vitro toxicity on other mammalian cell types (FIG. 11); assay type: cell-based; details: pig (EAP) endothelial cells, read-out: concentration at which a toxic effect can possibly be observed
Procedure: Similar in vitro toxicity tests were performed on other mammalian (porcine, human, etc.) cell types.
FIG. 11 depicts the percentage survival of different cell types (fibroblasts, human (ECV) or pig (EAP) endothelial cells) as a function of increasing doses of CLZ-9 (molar). A toxic effect of the products can possibly be observed on a certain cell type at high concentrations (10^-4 M in pigs).

human fibroblasts (MRC5) = test: In vitro toxicity on human fibroblasts (MRC5), total protein content; assay type: cell-based; details: concentration of 0.1 mM (10^-4 M), 1% ethanol
Procedure: Each of the imidazolopyrazine derivatives tested was applied to human fibroblasts (MRC5) in culture. The doses of the compounds ranged from 10^-8 to 10^-4 M. These compounds were applied 48 hours after the cells were inoculated into wells (volume=150 μl; 3000 cells per well).
After a further 24 hour period, the culture medium is renewed, the cells are incubated for 72 hours and their level of survival and of growth is evaluated by measuring the total protein contents in each well (Biorad).

[6] = t-BHP-treated human fibroblasts

Oc1ccc(Cc2nc3c(Cc4ccccc4)nc(-c4ccc(O)cc4)cn3c2O)cc1 [coelenterazine, 3,7-dihydro-2-(p-hydroxybenzyl)-6-(p-hydroxyphenyl)-8-benzylimidazo[1,2-a]pyrazyn-3-one]
rate constant KSOD ([1]; coelenterazine concentration 50 nM): 2×10^9 | rate constant KSOD ([1]; coelenterazine concentration 400 nM): 2.5×10^10 | increase in rate constant KSOD ([1]; coelenterazine concentration multiplied by 8 (from 50 to 400 nM)): 12.5 fold | change of slope of the relationship linking IO/I to the superoxide dismutase concentration [1]: a rise in the slope | stability in an aqueous medium [2]: only a few hours | antioxidant activity compared with vitamin E (Human fibroblasts; [6]): equivalent to | Weight (in grams) after 0 day (mice [3]): 16.19 grams | Weight (in grams) after 6 days (mice [3]): 22.82 grams | Weight (in grams) after 30 days (mice [3]): 31.57 grams | survival (mice [3]): 5/5 | growth retardation (mice [3]; ip): no growth retardation is observed | survival (In vivo toxicity in mice): 100% | toxicity for mice (mice [4]): not toxic

O=c1c(-c2ccccc2)nc2c(Cc3ccccc3)[nH]c(-c3ccc(O)cc3)cn1-2 [CLZN-10, 3,7-dihydro-2-phenyl-6-(p-hydroxyphenyl)-8-benzylimidazo[1,2-a]pyrazyn-3-one]
increase of KSOD with imidazolopyrazine concentration (effect) [1]: observed

Nc1cccc2c(=O)[nH][nH]c(=O)c12 [luminol, reference compound]
change of slope of the relationship linking IO/I to the superoxide dismutase concentration [1]: a regular decrease in the slope

Cc1c(C)c2c(c(C)c1O)CC[C@@](C)(CCC[C@H](C)CCC[C@H](C)CCCC(C)C)O2 [vitamin E, α-tocopherol, reference compound]
protection (Human fibroblasts; serum (10%) in the culture medium, highest concentrations): 60%

Cc1nc2c(Cc3ccccc3)[nH]c(-c3ccc(O)cc3)cn-2c1=O [CLZN-9, 3,7-dihydro-2-methyl-6-(p-hydroxyphenyl)-8-benzylimidazo[1,2-a]pyrazyn-3-one]
increase of KSOD with imidazolopyrazine concentration (effect) [1]: observed | MCC [5]: 100 µM | EC100 (Human fibroblasts; Fibroblast, t-BHP-treated human fibroblasts, read-out: concentration at which protection is total): 1 µM | minimal effective concentration (Human fibroblasts; Fibroblast, t-BHP-treated human fibroblasts, read-out: concentration from which the improvement of survival is significant): 0.02 µM | survival of the t-BHP-treated cells (Human fibroblasts; t-BHP 10^-4 M, without serum (FIG. 8)): most advantageous results | antioxidant activity compared with vitamin E (Human fibroblasts; [6]): greater than

O=c1c(Cc2ccccc2)nc2c(Cc3ccccc3)[nH]c(-c3ccc(O)cc3)cn1-2 [CLZN-11, 3,7-dihydro-2-benzyl-6-(p-hydroxyphenyl)-8-benzylimidazo[1,2-a]pyrazyn-3-one]
toxicity for human fibroblasts (MRC5) (human fibroblasts (MRC5)): significant toxicity
